{
  "source": "paper PMC11864979",
  "about": "“First-in-class ultralong-target-residence-time p38α inhibitors as a mitosis-targeted therapy for colorectal cancer” (Nature Cancer, 2025)",
  "assay_in_all_cases": "selectivity profiling in a panel of 340 wild-type kinases (Reaction Biology Europe)",
  "format_in_all_cases": "binding",
  "key": {"340 wild-type kinases [1]": {"molecular_target": "T1, 340 wild-type kinases (Homo sapiens, UniProt Q8WTQ7)", "T1 construct": "purchased Reaction Biology Europe", "T1 sequence (Q8WTQ7 1-553)": "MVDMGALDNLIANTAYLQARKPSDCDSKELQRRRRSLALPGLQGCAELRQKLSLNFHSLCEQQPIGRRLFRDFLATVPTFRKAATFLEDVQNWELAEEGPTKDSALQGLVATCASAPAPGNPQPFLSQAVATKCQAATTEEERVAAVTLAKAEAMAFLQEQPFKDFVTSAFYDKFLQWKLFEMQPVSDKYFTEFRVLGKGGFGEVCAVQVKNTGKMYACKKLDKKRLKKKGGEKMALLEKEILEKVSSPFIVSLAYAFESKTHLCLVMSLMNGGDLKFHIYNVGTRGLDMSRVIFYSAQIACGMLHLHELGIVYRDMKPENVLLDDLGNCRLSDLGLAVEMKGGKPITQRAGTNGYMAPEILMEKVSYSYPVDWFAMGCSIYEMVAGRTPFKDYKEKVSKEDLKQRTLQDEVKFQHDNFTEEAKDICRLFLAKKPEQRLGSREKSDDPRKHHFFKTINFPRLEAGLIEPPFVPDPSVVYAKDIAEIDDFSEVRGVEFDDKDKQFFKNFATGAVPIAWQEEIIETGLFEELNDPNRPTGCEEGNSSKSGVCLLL"}, "340 wild-type kinases [2]": {"molecular_target": "T2, 340 wild-type kinases (Homo sapiens, UniProt P33981)", "T2 construct": "purchased Reaction Biology Europe", "T2 sequence (P33981 1-857)": "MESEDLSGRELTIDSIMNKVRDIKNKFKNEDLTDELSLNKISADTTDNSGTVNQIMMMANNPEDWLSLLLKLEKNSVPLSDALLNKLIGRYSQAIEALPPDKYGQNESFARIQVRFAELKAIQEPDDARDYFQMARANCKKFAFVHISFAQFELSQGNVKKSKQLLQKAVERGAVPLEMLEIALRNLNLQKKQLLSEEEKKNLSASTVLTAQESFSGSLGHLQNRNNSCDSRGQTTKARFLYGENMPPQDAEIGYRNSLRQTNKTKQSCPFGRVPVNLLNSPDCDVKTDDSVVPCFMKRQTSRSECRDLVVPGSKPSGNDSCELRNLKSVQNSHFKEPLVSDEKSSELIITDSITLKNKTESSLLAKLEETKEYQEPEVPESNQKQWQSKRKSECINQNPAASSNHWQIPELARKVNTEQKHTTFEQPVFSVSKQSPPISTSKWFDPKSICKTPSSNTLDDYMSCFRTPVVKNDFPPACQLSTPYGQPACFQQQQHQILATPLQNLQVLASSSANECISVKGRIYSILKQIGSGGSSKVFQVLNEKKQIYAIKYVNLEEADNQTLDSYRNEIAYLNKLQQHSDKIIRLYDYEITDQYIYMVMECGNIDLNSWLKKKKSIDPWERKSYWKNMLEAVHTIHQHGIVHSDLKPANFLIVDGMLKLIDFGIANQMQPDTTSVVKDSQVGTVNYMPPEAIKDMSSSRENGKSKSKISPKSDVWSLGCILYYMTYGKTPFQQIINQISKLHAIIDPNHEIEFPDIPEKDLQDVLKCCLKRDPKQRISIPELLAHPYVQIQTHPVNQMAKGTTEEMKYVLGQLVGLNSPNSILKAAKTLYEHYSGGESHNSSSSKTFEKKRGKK"}, "340 wild-type kinases [3]": {"molecular_target": "T3, 340 wild-type kinases (Homo sapiens, UniProt P17612)", "T3 construct": "purchased Reaction Biology Europe"}, "340 wild-type kinases [4]": {"molecular_target": "T4, 340 wild-type kinases (Homo sapiens, UniProt Q04771)", "T4 construct": "purchased Reaction Biology Europe", "T4 sequence (Q04771 21-509)": "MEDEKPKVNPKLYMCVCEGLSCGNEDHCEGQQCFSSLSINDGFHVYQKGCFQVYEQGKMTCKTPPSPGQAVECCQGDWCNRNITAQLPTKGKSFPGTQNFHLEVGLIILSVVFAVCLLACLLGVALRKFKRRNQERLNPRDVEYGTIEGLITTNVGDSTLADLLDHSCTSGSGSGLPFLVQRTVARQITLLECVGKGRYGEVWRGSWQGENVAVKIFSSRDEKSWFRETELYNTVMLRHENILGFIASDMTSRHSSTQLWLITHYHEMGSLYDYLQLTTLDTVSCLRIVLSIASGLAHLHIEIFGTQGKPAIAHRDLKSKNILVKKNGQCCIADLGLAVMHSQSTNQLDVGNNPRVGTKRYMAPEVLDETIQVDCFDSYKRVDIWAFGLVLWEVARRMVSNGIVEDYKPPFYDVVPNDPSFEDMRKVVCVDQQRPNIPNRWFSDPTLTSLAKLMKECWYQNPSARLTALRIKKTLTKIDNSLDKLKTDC"}, "340 wild-type kinases [5]": {"molecular_target": "T5, 340 wild-type kinases (Homo sapiens, UniProt O43293)", "T5 construct": "purchased Reaction Biology Europe", "T5 sequence (O43293 whole entry)": "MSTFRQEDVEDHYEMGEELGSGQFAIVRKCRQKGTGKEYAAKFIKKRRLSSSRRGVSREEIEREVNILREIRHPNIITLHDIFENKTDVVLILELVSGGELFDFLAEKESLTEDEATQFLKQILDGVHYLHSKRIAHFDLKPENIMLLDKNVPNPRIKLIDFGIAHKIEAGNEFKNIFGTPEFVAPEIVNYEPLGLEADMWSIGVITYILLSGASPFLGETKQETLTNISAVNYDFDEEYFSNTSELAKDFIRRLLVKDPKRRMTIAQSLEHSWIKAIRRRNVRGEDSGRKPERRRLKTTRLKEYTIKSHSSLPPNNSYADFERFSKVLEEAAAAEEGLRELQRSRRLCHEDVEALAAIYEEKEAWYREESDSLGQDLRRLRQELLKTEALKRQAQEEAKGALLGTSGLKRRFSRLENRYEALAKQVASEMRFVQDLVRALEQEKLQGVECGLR"}, "340 wild-type kinases [6]": {"molecular_target": "T6, 340 wild-type kinases (Homo sapiens, UniProt P05129)", "T6 construct": "purchased Reaction Biology Europe"}, "340 wild-type kinases [7]": {"molecular_target": "T7, 340 wild-type kinases (Homo sapiens, UniProt Q9NYY3)", "T7 construct": "purchased Reaction Biology Europe", "T7 sequence (Q9NYY3 whole entry)": "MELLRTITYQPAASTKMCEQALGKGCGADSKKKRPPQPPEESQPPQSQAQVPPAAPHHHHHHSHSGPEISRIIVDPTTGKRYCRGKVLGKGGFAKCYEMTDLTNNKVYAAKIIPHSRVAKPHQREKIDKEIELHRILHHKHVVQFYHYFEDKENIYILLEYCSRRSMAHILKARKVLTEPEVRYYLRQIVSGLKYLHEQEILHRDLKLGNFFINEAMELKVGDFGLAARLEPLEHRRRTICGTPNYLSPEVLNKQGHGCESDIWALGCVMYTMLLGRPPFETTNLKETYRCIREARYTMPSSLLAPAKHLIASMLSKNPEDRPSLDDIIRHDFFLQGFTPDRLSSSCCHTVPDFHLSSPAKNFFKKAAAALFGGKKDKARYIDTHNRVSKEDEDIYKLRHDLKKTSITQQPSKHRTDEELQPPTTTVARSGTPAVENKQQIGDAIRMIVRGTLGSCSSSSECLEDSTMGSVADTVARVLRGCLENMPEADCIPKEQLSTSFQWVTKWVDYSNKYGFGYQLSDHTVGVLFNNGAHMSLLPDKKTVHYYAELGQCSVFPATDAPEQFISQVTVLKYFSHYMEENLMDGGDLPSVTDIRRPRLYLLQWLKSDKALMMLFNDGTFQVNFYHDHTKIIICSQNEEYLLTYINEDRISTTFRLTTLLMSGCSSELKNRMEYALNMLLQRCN"}, "340 wild-type kinases [8]": {"molecular_target": "T8, 340 wild-type kinases (Homo sapiens, UniProt O96017)", "T8 construct": "purchased Reaction Biology Europe", "T8 sequence (O96017 whole entry)": "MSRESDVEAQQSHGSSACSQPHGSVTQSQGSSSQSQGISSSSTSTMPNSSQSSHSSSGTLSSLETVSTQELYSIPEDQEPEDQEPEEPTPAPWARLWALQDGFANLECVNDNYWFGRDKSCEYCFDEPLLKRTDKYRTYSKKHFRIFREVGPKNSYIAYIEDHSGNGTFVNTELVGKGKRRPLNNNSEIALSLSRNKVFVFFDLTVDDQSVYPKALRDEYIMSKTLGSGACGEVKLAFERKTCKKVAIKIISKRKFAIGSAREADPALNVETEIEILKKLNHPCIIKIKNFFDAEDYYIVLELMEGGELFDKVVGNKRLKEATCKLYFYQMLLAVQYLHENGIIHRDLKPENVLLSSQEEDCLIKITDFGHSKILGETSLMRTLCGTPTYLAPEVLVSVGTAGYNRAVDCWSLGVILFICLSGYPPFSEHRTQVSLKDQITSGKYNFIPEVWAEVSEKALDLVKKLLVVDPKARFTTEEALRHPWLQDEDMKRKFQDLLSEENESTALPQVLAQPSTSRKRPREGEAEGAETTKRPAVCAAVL"}, "340 wild-type kinases [9]": {"molecular_target": "T9, 340 wild-type kinases (Homo sapiens, UniProt O00238)", "T9 construct": "purchased Reaction Biology Europe", "T9 sequence (O00238 14-502)": "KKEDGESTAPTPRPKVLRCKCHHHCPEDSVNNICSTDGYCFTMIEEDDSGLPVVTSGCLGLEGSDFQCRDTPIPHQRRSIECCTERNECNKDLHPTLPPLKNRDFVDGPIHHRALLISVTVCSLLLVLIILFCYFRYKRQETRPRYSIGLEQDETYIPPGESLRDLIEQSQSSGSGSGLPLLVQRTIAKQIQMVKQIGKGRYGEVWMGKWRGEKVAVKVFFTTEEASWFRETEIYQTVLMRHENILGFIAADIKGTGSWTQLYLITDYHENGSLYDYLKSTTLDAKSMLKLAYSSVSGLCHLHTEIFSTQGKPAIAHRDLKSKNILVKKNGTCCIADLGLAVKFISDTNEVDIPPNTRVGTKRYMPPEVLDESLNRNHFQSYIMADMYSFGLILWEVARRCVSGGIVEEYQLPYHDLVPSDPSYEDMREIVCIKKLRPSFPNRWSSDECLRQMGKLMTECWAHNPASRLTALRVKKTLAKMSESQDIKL"}},
  "note": "Like-named read-outs stand apart in the source and are kept apart here.",
  "data": [
    {"compound": "CNC(=O)c1ccc2c(c1)C(=O)c1ccc(Nc3ccc(F)c(NC(=O)C4CC4)c3)cc1CC2", "note": "[Compound 2015]", "values": [
      {"measurement": "remaining activity at 0.2 µM", "setting": "340 wild-type kinases [1]; 0.2 µM 2015, read-out: GRK7 residual activity", "value": 123, "unit": "%"},
      {"measurement": "remaining activity at 1 µM", "setting": "340 wild-type kinases [1]; 1 µM 2015, read-out: GRK7 residual activity", "value": 106, "unit": "%"},
      {"measurement": "remaining activity at 0.2 µM", "setting": "340 wild-type kinases [1]; GRK7, 0.2 µM, read-out: residual activity", "value": 123, "unit": "%"},
      {"measurement": "remaining activity at 1 µM", "setting": "340 wild-type kinases [1]; GRK7, 1 µM, read-out: residual activity", "value": 106, "unit": "%"},
      {"measurement": "remaining activity at 0.2 µM", "setting": "340 wild-type kinases [2]; 0.2 µM 2015, read-out: TTK residual activity", "value": 95.3, "unit": "%"},
      {"measurement": "remaining activity at 1 µM", "setting": "340 wild-type kinases [2]; 1 µM 2015, read-out: TTK residual activity", "value": 90.4, "unit": "%"},
      {"measurement": "remaining activity at 0.2 µM", "setting": "340 wild-type kinases [2]; TTK, 0.2 µM, read-out: residual activity", "value": 95.3, "unit": "%"},
      {"measurement": "remaining activity at 1 µM", "setting": "340 wild-type kinases [2]; TTK, 1 µM, read-out: residual activity", "value": 90.4, "unit": "%"},
      {"measurement": "remaining activity at 0.2 µM", "setting": "340 wild-type kinases [3]; 0.2 µM 2015, read-out: PKA residual activity", "value": 124, "unit": "%"},
      {"measurement": "remaining activity at 1 µM", "setting": "340 wild-type kinases [3]; 1 µM 2015, read-out: PKA residual activity", "value": 97.7, "unit": "%"},
      {"measurement": "remaining activity at 0.2 µM", "setting": "340 wild-type kinases [3]; PKA, 0.2 µM, read-out: residual activity", "value": 124, "unit": "%"},
      {"measurement": "remaining activity at 1 µM", "setting": "340 wild-type kinases [3]; PKA, 1 µM, read-out: residual activity", "value": 97.8, "unit": "%"},
      {"measurement": "remaining activity at 0.2 µM", "setting": "340 wild-type kinases [4]; 0.2 µM 2015, read-out: ACVR1 residual activity", "value": 88.7, "unit": "%"},
      {"measurement": "remaining activity at 1 µM", "setting": "340 wild-type kinases [4]; 1 µM 2015, read-out: ACVR1 residual activity", "value": 96.8, "unit": "%"},
      {"measurement": "remaining activity at 0.2 µM", "setting": "340 wild-type kinases [4]; ACVR1, 0.2 µM, read-out: residual activity", "value": 88.7, "unit": "%"},
      {"measurement": "remaining activity at 1 µM", "setting": "340 wild-type kinases [4]; ACVR1, 1 µM, read-out: residual activity", "value": 96.8, "unit": "%"},
      {"measurement": "remaining activity at 0.2 µM", "setting": "340 wild-type kinases [5]; 0.2 µM 2015, read-out: DAPK3 residual activity", "value": 110, "unit": "%"},
      {"measurement": "remaining activity at 1 µM", "setting": "340 wild-type kinases [5]; 1 µM 2015, read-out: DAPK3 residual activity", "value": 115, "unit": "%"},
      {"measurement": "remaining activity at 0.2 µM", "setting": "340 wild-type kinases [5]; DAPK3, 0.2 µM, read-out: residual activity", "value": 110, "unit": "%"},
      {"measurement": "remaining activity at 1 µM", "setting": "340 wild-type kinases [5]; DAPK3, 1 µM, read-out: residual activity", "value": 115, "unit": "%"},
      {"measurement": "remaining activity at 0.2 µM", "setting": "340 wild-type kinases [6]; 0.2 µM 2015, read-out: PKCgamma residual activity", "value": 109, "unit": "%"},
      {"measurement": "remaining activity at 1 µM", "setting": "340 wild-type kinases [6]; 1 µM 2015, read-out: PKCgamma residual activity", "value": 86.6, "unit": "%"},
      {"measurement": "remaining activity at 0.2 µM", "setting": "340 wild-type kinases [6]; PKCgamma, 0.2 µM, read-out: residual activity", "value": 109, "unit": "%"},
      {"measurement": "remaining activity at 1 µM", "setting": "340 wild-type kinases [6]; PKCgamma, 1 µM, read-out: residual activity", "value": 86.6, "unit": "%"},
      {"measurement": "remaining activity at 0.2 µM", "setting": "340 wild-type kinases [7]; 0.2 µM 2015, read-out: SNK residual activity", "value": 103, "unit": "%"},
      {"measurement": "remaining activity at 1 µM", "setting": "340 wild-type kinases [7]; 1 µM 2015, read-out: SNK residual activity", "value": 97.3, "unit": "%"},
      {"measurement": "remaining activity at 0.2 µM", "setting": "340 wild-type kinases [7]; SNK, 0.2 µM, read-out: residual activity", "value": 103, "unit": "%"},
      {"measurement": "remaining activity at 1 µM", "setting": "340 wild-type kinases [7]; SNK, 1 µM, read-out: residual activity", "value": 97.3, "unit": "%"},
      {"measurement": "remaining activity at 0.2 µM", "setting": "340 wild-type kinases [8]; 0.2 µM 2015, read-out: CHK2 residual activity", "value": 102, "unit": "%"},
      {"measurement": "remaining activity at 1 µM", "setting": "340 wild-type kinases [8]; 1 µM 2015, read-out: CHK2 residual activity", "value": 94.9, "unit": "%"},
      {"measurement": "remaining activity at 0.2 µM", "setting": "340 wild-type kinases [8]; CHK2, 0.2 µM, read-out: residual activity", "value": 102, "unit": "%"},
      {"measurement": "remaining activity at 1 µM", "setting": "340 wild-type kinases [8]; CHK2, 1 µM, read-out: residual activity", "value": 94.9, "unit": "%"},
      {"measurement": "remaining activity at 0.2 µM", "setting": "340 wild-type kinases [9]; 0.2 µM 2015, read-out: BMPR1B residual activity", "value": 105, "unit": "%"},
      {"measurement": "remaining activity at 1 µM", "setting": "340 wild-type kinases [9]; 1 µM 2015, read-out: BMPR1B residual activity", "value": 103, "unit": "%"},
      {"measurement": "remaining activity at 0.2 µM", "setting": "340 wild-type kinases [9]; BMPR1B, 0.2 µM, read-out: residual activity", "value": 105, "unit": "%"},
      {"measurement": "remaining activity at 1 µM", "setting": "340 wild-type kinases [9]; BMPR1B, 1 µM, read-out: residual activity", "value": 103, "unit": "%"}
    ]}
  ]
}
